Measured values from US4328214A, “Cyclopeptides and pharmaceutical preparations thereof and also processes for their manufacture” (Ciba-Geigy Corporation, priority 1979, dated 1982).

System: insulin and glucagon release
Assay: determination of insulin and glucagon release using the isolated perfused pancreas of a rat
Settings: multiple of the reference's inhibitory effect

[D-Trp^8 ; β-(1-naphthyl)-Gaba^12 ]-cyclosomatostatin(5-12)-octapeptide [formula ID diastereoisomeric mixture]
inhibitory effect relative to [D-Trp^8 ; Gaba^12 ]-cyclosomatostatin(5-12)-octapeptide (formula M, p=1): approximately 10 times
